Values quoted from earlier work in patent US20060217788A1, “Method of using laser induced injury to activate topical prodrugs” (priority 2004, published 2006).
Where no end group is shown, it is not given here. The star is where a group is joined. Palmitoyl = CCCCCCCCCCCCCCCC(=O)*

Tests used:
[1] = system: wrinkle improvement and photo-aging scores; details: 3 ppm, clinical studies
fibroblast cultures = details: in vitro
[2] = system: MMP-1, -2, -3, -7, -9 and -13

In the case of “N-Palmitoyl-Lys-Thr-Thr-Lys-Ser (Palmitoyl-KTTKS) [Pal-KTTKS, pentapeptide conjugated to a 16-carbon fatty acid moiety, from Sederma]”, the “irritation or changes in barrier function” value [1] is given as “without significant irritation or changes in barrier function” and the “wrinkle improvement and reduction of photo-aging scores” value [1] is given as “comparable to retinoids”.
For “KTTKS [pentapeptide, subfragment of the carboxyl-terminal propeptide of type I collagen]”, the “production of matrix components including collagen I, III and fibronectin” value (fibroblast cultures) is listed as “increased production”.
For “PLGLAARK [fairly broad spectrum peptide substrate cleavable by MMPs]”, the “cleavage by MMPs” value [2] is given as “cleavable”.
